Measurements: the NIST ThermoML archive (doi:10.1016/j.jct.2015.08.014)

Assay: xn = mol fraction of the nth substance listed
Conditions: 100 kPa, Liquid; for electrical conductivity: Alternating current cell with electrodes; for mass density: Vibrating tube method; for viscosity: Capillary tube (Ostwald / Ubbelohde) method

CCCC[N+]1(C)CCCC1.N#CN=C=[N-] [1-butyl-1-methylpyrrolidinium dicyanamide] + O=C1CCCO1
electrical conductivity [S/m], 293.15 K
Conditions | Frequency=0.00652174 MHz | Frequency=0.00694444 MHz | Frequency=0.0075 MHz | Frequency=0.008 MHz | Frequency=0.00857143 MHz | Frequency=0.00892857 MHz | Frequency=0.00961538 MHz | Frequency=0.01 MHz
x1 = 0.0463 | – | 1.37 | 1.37 | 1.37 | 1.37 | 1.37 | 1.37 | 1.37
x1 = 0.0987 | – | 2.05 | 2.05 | 2.05 | 2.05 | 2.05 | 2.05 | 2.05
x1 = 0.1449 | 2.31 | 2.31 | 2.31 | 2.31 | 2.31 | 2.31 | 2.31 | 2.31
x1 = 0.1859 | 2.45 | 2.45 | 2.45 | 2.45 | 2.45 | 2.45 | 2.45 | 2.45
x1 = 0.2493 | 2.37 | 2.37 | 2.37 | 2.37 | 2.38 | 2.38 | 2.38 | 2.38
x1 = 0.3029 | 2.29 | 2.29 | 2.29 | 2.29 | 2.3 | 2.3 | 2.3 | 2.3
x1 = 0.3845 | 2.116 | 2.116 | 2.116 | 2.116 | 2.12 | 2.12 | 2.12 | 2.12
x1 = 0.4985 | 1.84 | 1.84 | 1.84 | 1.84 | 1.84 | 1.84 | 1.84 | 1.84
x1 = 0.6954 | 1.46 | 1.46 | 1.46 | 1.46 | 1.46 | 1.46 | 1.46 | 1.46
x1 = 0.9013 | 1.19 | 1.19 | 1.19 | 1.19 | 1.19 | 1.19 | 1.19 | 1.19
x1 = 1 | 1.123 | 1.123 | 1.123 | 1.123 | 1.123 | 1.124 | 1.124 | 1.124

Conditions | electrical conductivity, 298.15 K [S/m] | mass density, 293.15 K [kg/m3] | viscosity, 298.15 K [mPa·s]
x1 = 0.0463 | 1.47 | – | –
x1 = 0.0987 | 2.21 | 1107.56 | 2.8
x1 = 0.1449 | 2.51 | – | –
x1 = 0.1859 | 2.67 | 1091.31 | 4.02
x1 = 0.2493 | 2.613 | – | –
x1 = 0.3029 | 2.54 | 1073.37 | 6.19
x1 = 0.3845 | 2.36 | – | –
x1 = 0.4985 | 2.08 | 1050.78 | –
x1 = 0.6954 | 1.68 | 1034.23 | –
x1 = 0.9013 | 1.39 | 1021.32 | –
x1 = 1 | 1.317 | 1016.28 | –
